{"source": "patent US12180372B2", "about": "“Resin composition, optical filter, image display device, solid-state imaging element, and colorant mixture” (FUJIFILM Corporation, priority 2018, dated 2024)"}
{"test": "Measurement of maximum absorption wavelength of colorant or colorant mixture in chloroform solution", "type": "physicochemical", "settings": "colorant mixture in chloroform, 1×10^−6 mol/L, 10 mm cell, 23° C.", "procedure": "The obtained compound F-3 was dissolved in chloroform (concentration: 1×10^−6 mol/L), and the maximum absorption wavelength […] and molar absorption coefficient (c) of the compound F-3 was measured using a cell having an optical path length of 10 mm and using a spectrophotometer UV-1800PC (manufactured by Shimazu Corporation). The maximum absorption wavelength λmax of the compound F-3 was 679 nm, and the molar absorption coefficient (s) was 355000. The obtained compound F-38 was dissolved in chloroform (concentration: 1×10^−6 mol/L), and the maximum absorption wavelength […] and molar absorption coefficient (ε) of the compound F-38 was measured using a cell having an optical path length of 10 mm and using a spectrophotometer UV-1800PC (manufactured by Shimadzu Corporation). The maximum absorption wavelength λmax of the compound F-38 was 590 nm, and the molar absorption coefficient (ε) was 204000. The obtained compound F-51 was dissolved in chloroform (concentration: 1×10^−6 mol/L), and the maximum absorption wavelength λmax and molar absorption coefficient (ε) of the compound F-51 was measured using a cell having an optical path length of 10 mm and using a spectrophotometer UV-1800 (PC (manufactured by Shimadzu Corporation). The maximum absorption wavelength λmax of the compound F-51 was 589 nm, and the molar absorption coefficient (ε) was 244000. The obtained compound F-75 was dissolved in chloroform (concentration: 1×10^−6 mol/L), and the maximum absorption wavelength λmax and molar absorption coefficient (ε) of the compound F-75 was measured using a cell having an optical path length of 10 mm and using a spectrophotometer t-UV-1800PC (manufactured by Shimadzu Corporation). The maximum absorption wavelength λmax of the compound F-75 was 589 nm, and the molar absorption coefficient (ε) was 221000.", "units": {"λmax (nm)": "nm"}}
{"compound": "CC1=CC(C)=N/C1=C1\\C(=O)C(c2[nH]c(C)cc2C)=C1O", "note": "[Compound A-3]", "λmax (nm)": 498}
{"compound": "CCN(CC)c1ccc(C2=C([O-])C(=C3C=CC(=[N+](CC)CC)C=C3)C2=O)cc1", "note": "[Compound A-21]", "λmax (nm)": 634}
{"compound": "CCN(CC)c1ccc(C2=C([O-])/C(=C3/C=CC(=[N+](CC)CC)C=C3NC(=O)C(C)(C)CC)C2=O)c(NC(=O)C(C)(C)CC)c1", "note": "[Compound A-24]", "λmax (nm)": 673}
{"test": "Evaluation of solubility of colorant mixture", "type": "physicochemical", "settings": "added to toluene at 23° C., stirred for 1 hour, visually observed", "procedure": "(§1) Solubility of the colorant mixture shown in the following table in […] was evaluated. Specifically, the colorant mixture was added to toluene at 23° C., stirred for 1 hour, and the presence or absence of dissolution of the colorant was visually observed and the solubility was evaluated based on the following evaluation standard."}
{"compound": "CC1=CC(C)=N/C1=C1\\C(=O)C(c2[nH]c(C)cc2C)=C1O", "note": "[Compound A-3]", "Evaluation Solubility": "D (solubility was less than 0.1% by mass)"}
{"compound": "CCN(CC)c1ccc(C2=C([O-])C(=C3C=CC(=[N+](CC)CC)C=C3)C2=O)cc1", "note": "[Compound A-21]", "Evaluation Solubility": "D (solubility was less than 0.1% by mass)"}
{"compound": "CCN(CC)c1ccc(C2=C([O-])/C(=C3/C=CC(=[N+](CC)CC)C=C3NC(=O)C(C)(C)CC)C2=O)c(NC(=O)C(C)(C)CC)c1", "note": "[Compound A-24]", "Evaluation Solubility": "C (solubility was 0.1% by mass or more and less than 0.5% by mass)"}
{"test": "Evaluation of solubility of colorant mixture", "type": "physicochemical", "settings": "toluene, 23° C.", "procedure": "as §1"}
{"compound": "CC1=CC(C)=N/C1=C1\\C(=O)C(c2[nH]c(C)cc2C)=C1O", "note": "[Compound A-3]", "solubility in toluene": "less than 0.1 % by mass"}
{"compound": "CCN(CC)c1ccc(C2=C([O-])C(=C3C=CC(=[N+](CC)CC)C=C3)C2=O)cc1", "note": "[Compound A-21]", "solubility in toluene": "less than 01 % by mass"}
{"compound": "CCN(CC)c1ccc(C2=C([O-])/C(=C3/C=CC(=[N+](CC)CC)C=C3NC(=O)C(C)(C)CC)C2=O)c(NC(=O)C(C)(C)CC)c1", "note": "[Compound A-24]", "solubility in toluene": "less than 0.5 % by mass"}
